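Cultured in 96-well plates, cells were exposed to test compound for 48 hours across five concentrations. GI50 = concentration required for 50% inhibition of growth. TGI is the concentration that stops growth completely.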
Key:
Experiment in all cases: NCI anticancer screen, dose series, 48 h
[1] = system: K-562 leukemia
[2] = system: RPMI-8226 leukemia
[3] = system: KM12 colon
[4] = system: OVCAR-5 ovarian
[5] = system: MDA-MB-435
[6] = system: UO-31 renal
[7] = system: NCI-H23 lung
[8] = system: COLO 205 colon
[9] = system: NCI-H460 lung
[10] = system: SK-OV-3 ovarian

With `CC1=CC(C)=NN=C(N)N1S(=O)(=O)c1cc(C)c(Cl)cc1SCc1ccccc1` the GI50 [1] was 9.22 µM, the TGI [1] was > 100 µM and the GI50 [2] was 5.93 µM. For the same compound, the TGI [2] was > 100 µM, the GI50 [3] was 34.6 µM and the TGI [3] was > 100 µM. For the same compound, the GI50 [4] was > 100 µM, the TGI [4] was > 100 µM and the GI50 [5] was 21.3 µM. For the same compound, the TGI [5] was > 100 µM, the GI50 [6] was 5.18 µM and the TGI [6] was > 100 µM. For the same compound, the GI50 [7] was 14.2 µM, the TGI [7] was > 100 µM and the GI50 [8] was 27.9 µM. The TGI [8] was > 100 µM, the GI50 [9] was 9.22 µM and the TGI [9] was > 100 µM. For the same compound, the GI50 [10] was 77.7 µM and the TGI [10] was > 100 µM.
In the case of `COC1C(O)CC(OC2CC(OC3CC(O[C@@H]4C(=O)c5c(cc6cc(OC7CC(OC8CC(O)C(O)C(C)O8)C(O)C(C)O7)c(C)c(O)c6c5O)CC4[C@H](OC)C(=O)O)OC(C)C3O)OC(C)C2O)OC1C` (stereo not given in full), the GI50 [1] is reported as 1.96 µM, the TGI [1] is reported as > 33.3 µM and the GI50 [2] is reported as 1.73 µM. The TGI [2] was > 33.3 µM, the GI50 [3] was 1.89 µM and the TGI [3] was > 33.3 µM. The GI50 [4] was 4.04 µM, the TGI [4] was > 33.3 µM and the GI50 [5] was 2.56 µM. The TGI [5] was 24.7 µM, the GI50 [6] was 1.11 µM and the TGI [6] was > 33.3 µM. It also gave a GI50 [7] of 1.63 µM, a TGI [7] of 17.2 µM and a GI50 [8] of 1.09 µM. For the same compound, the TGI [8] was 6.9 µM, the GI50 [9] was 1.31 µM and the TGI [9] was > 33.3 µM. For the same compound, the GI50 [10] was 2.24 µM and the TGI [10] was > 33.3 µM.
With `Cn1c(=O)c(Oc2ccc(F)cc2F)cc2cnc(NC(C)(C)CO)nc21` the GI50 [1] was > 25 µM, the TGI [1] was > 25 µM and the GI50 [2] was > 25 µM. For the same compound, the TGI [2] was > 25 µM, the GI50 [3] was > 25 µM and the TGI [3] was > 25 µM. The GI50 [4] was > 25 µM, the TGI [4] was > 25 µM and the GI50 [5] was > 25 µM. The TGI [5] was > 25 µM, the GI50 [6] was 6.65 µM and the TGI [6] was > 13.4 µM. For the same compound, the GI50 [7] was > 25 µM, the TGI [7] was > 25 µM and the GI50 [8] was > 25 µM. The TGI [8] was > 25 µM, the GI50 [9] was > 25 µM and the TGI [9] was > 25 µM. For the same compound, the GI50 [10] was > 25 µM and the TGI [10] was > 25 µM.
In the case of `COc1cc(Oc2c(C)c(Cl)c(OC)c(Cl)c2OC)c2c(c1Cl)COC2=O`, the TGI [1] is reported as 8.51 µM, the TGI [2] is reported as 13.1 µM and the TGI [3] is reported as > 100 µM. For the same compound, the TGI [4] was > 100 µM, the TGI [5] was > 100 µM and the TGI [6] was > 100 µM. The TGI [7] was > 100 µM, the TGI [8] was > 100 µM and the TGI [9] was > 100 µM. The TGI [10] was > 100 µM.
With `Oc1ccc(Nc2ccc3ccccc3c2)cc1` the GI50 [1] was 2.96 µM, the TGI [1] was 15.9 µM and the GI50 [2] was 9.61 µM. The TGI [2] was > 100 µM, the GI50 [3] was 2.94 µM and the TGI [3] was 10 µM. The GI50 [4] was 22.7 µM, the TGI [4] was 78.3 µM and the GI50 [5] was 3.27 µM. It also gave a TGI [5] of 14 µM, a GI50 [6] of 1.6 µM and a TGI [6] of 9.49 µM. The GI50 [7] was 10.9 µM, the TGI [7] was 55.3 µM and the GI50 [8] was 17.5 µM. For the same compound, the TGI [8] was 35.4 µM, the GI50 [9] was 4.27 µM and the TGI [9] was 15.8 µM. The GI50 [10] was 17.2 µM and the TGI [10] was > 100 µM.
`O=C1C(=C(C(F)(F)Cl)C(F)(F)Cl)C2CCC1C2` (stereo not given) was tested, and the TGI [1] was > 10 µM, the TGI [2] was > 3.16 µM and the TGI [3] was > 8.65 µM. The TGI [4] was > 10 µM, the TGI [5] was 3.81 µM and the TGI [6] was > 6.47 µM. For the same compound, the TGI [7] was 4.63 µM, the TGI [8] was 3.25 µM and the TGI [9] was > 7.96 µM. For the same compound, the TGI [10] was > 10 µM.
For `C=C1CC2(CC(c3ccccc3Cl)OC(c3ccccc3Cl)C2)OC1=O` (stereo not given), the TGI [1] was > 25.3 µM, the TGI [2] was 3.84 µM and the TGI [3] was 7.56 µM. For the same compound, the TGI [4] was 16.5 µM, the TGI [5] was 3.51 µM and the TGI [6] was 11.7 µM. It also gave a TGI [7] of 9.03 µM, a TGI [8] of 5.51 µM and a TGI [9] of 12.6 µM. The TGI [10] was 16.9 µM.
